pIC50, pKd: −log10 of the molar value.
Tests used:
[1] = molecular target: T1, p53 Y220C mutant protein (amino acid residues 94-293) (Homo sapiens, UniProt P04637, Y220C); assay: Surface Plasmon Resonance (SPR) assay, Kd_kinetic; assay type: binding; details: SPR, kinetic KD, p53 Y220C; read-out: SPR P53 Y220C KD kinetic
T1 construct: p53 Y220C mutant protein (amino acid residues 94-293)
Summary of the method: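 Surface plasmon resonance is run at 16 or 20 °C in 50 mM Tris pH 7.5 containing 100 mM NaCl, 1 mM DTT, 0.01% Brij35, 0.05% Tween-20 and 1% DMSO. Association and dissociation data are fitted to a 1:1 model.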

[2] = system: H1299 p53 R273H; assay: Cell Proliferation Assay (CellTiter-Glo, CTG), H1299 p53 R273H (NClH1299-inducible p53 R273H); assay type: cell-based; details: Homo sapiens, NCI-H1299, 120 h, CellTiter-Glo, H1299 p53 R273H, 5 days
Summary of the method: (§1)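 Cells seeded at 250-500 per well and exposed to compound for 5 days. Viability read by CellTiter-Glo luminescence after 10 min at room temperature; IC50 calculated. H1299 lines carry Tet-One inducible p53 mutant constructs introduced by lentiviral transduction.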

[3] = molecular target: p53 Y220C (Homo sapiens, UniProt P04637, Y220C); assay: Luciferase Reporter Assay (Luc), p53 response element, NClH1299 cells with inducible p53 Y220C; assay type: cell-based; details: luciferase reporter, NClH1299 inducible p53 Y220C, 6 hour; for Emax: 10 uM tool compound as positive control; for AC50: read-out: Luc P53 Y220C AC50
Summary of the method: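 24 h dox pre-induction (0.5 ug/mL), then 6 h compound; One-Glo luminescent read.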

[4] = system: NUGC3 p53 Y220C; assay: Cell Proliferation Assay (CellTiter-Glo, CTG), NUGC3 p53 Y220C; assay type: cell-based; details: Homo sapiens, NUGC-3, 120 h, CellTiter-Glo, NUGC3 p53 Y220C, 5 days
Summary of the method: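 Tet-One inducible p53 Y220C or R273H constructs were stably introduced into NCI-H1299 by lentiviral transduction; NUGC3 was used as is. Cells (250-500 per well) were exposed to compound for 5 days, then CellTiter-Glo was added for 10 min at room temperature and IC50 was calculated from luminescence.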

[5] = system: H1299 p53 Y220C; assay: Cell Proliferation Assay (CellTiter-Glo, CTG), H1299 p53 Y220C (NClH1299-inducible p53 Y220C); assay type: cell-based; details: Homo sapiens, NCI-H1299, 120 h, CellTiter-Glo, H1299 p53 Y220C, 5 days
Summary of the method: as §1

[6] = molecular target: T1, p53 Y220C mutant protein (amino acid residues 94-293); assay: Thermal Shift Assay (TSA), dTM; assay type: binding; details: thermal shift; for ΔTm at 100 µM: 100 uM compound, read-out: TSA P53 Y220C dTM (100 uM); for ΔTm at 10 µM: 10 uM compound, read-out: TSA P53 Y220C dTM (10 uM)
Summary of the method: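 Differential scanning fluorimetry with Sypro Orange on 5 μM p53 Y220C residues 94-293, compound tested at 10 μM or 100 μM after 3 hours at 20 °C; buffer 20 mM HEPES, pH7.4, 100 mM NaCl, 1% DMSO.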

Row | pKd [1] | pIC50 [2] | Emax [3] | AC50 [3] | pIC50 [5] | ΔTm at 100 µM [6] | ΔTm at 10 µM [6] | SMILES | pIC50 [4]
1 | > 8.00 | 5.10 to 5.30 | 80 to 90% | < 0.75 µM | > 6.12 | 5 to 10 °C | – | CNC(=O)c1ccc(NCC#Cc2nc3c(N[C@@H]4CCN(C)C[C@@H]4F)cccn3c2CC(F)(F)F)c(OC)n1 [Example 92, 5-{[3-(8-{[(3S,4R)-3-fluoro-1-methylpiperidin-4-yl]amino}-3-(2,2,2-trifluoroethyl)imidazo[1,2-a]pyridin-2-yl)prop-2-yn-1-yl]amino}-6-methoxy-N-methylpyridine-2-carboxamide] | > 6.12
2 | > 8.00 | 5.10 to 5.30 | > 90% | < 0.75 µM | > 6.12 | ≥ 10 °C | – | CNC(=O)c1ccc(NCC#Cc2nc3c(N[C@@H]4CCN(C)C[C@@H]4F)cccn3c2SC(F)(F)F)c(OC)n1 [Example 93, 5-{[3-(8-{[(3S,4R)-3-fluoro-1-methylpiperidin-4-yl]amino}-3-[(trifluoromethyl)sulfanyl]imidazo[1,2-a]pyridin-2-yl)prop-2-yn-1-yl]amino}-6-methoxy-N-methylpyridine-2-carboxamide] | > 6.12
3 | > 8.00 | ≤ 5.00 | > 90% | < 0.75 µM | > 6.12 | ≥ 10 °C | ≥ 10 °C | CNC(=O)c1ccc(NCC#Cc2nc3c(N[C@@H]4CCN(C)C[C@@H]4F)cccn3c2SC(F)(F)F)cn1 [Example 94, 5-{[3-(8-{[(3S,4R)-3-fluoro-1-methylpiperidin-4-yl]amino}-3-[(trifluoromethyl)sulfanyl]imidazo[1,2-a]pyridin-2-yl)prop-2-yn-1-yl]amino}-N-methylpyridine-2-carboxamide] | > 6.12
4 | > 8.00 | 5.10 to 5.30 | 80 to 90% | < 0.75 µM | > 6.12 | ≥ 10 °C | ≥ 10 °C | COc1cc2c(cc1NCC#Cc1nc3c(N[C@@H]4CCN(C)C[C@@H]4F)cccn3c1SC(F)(F)F)CNC2=O [Example 96, 5-{[3-(8-{[(3S,4R)-3-fluoro-1-methylpiperidin-4-yl]amino}-3-[(trifluoromethyl)sulfanyl]imidazo[1,2-a]pyridin-2-yl)prop-2-yn-1-yl]amino}-6-methoxy-2,3-dihydroisoindol-1-one] | > 6.12
5 | 6.00 to 7.00 | ≤ 5.00 | < 70% | > 3 µM | < 5.52 | 5 to 10 °C | – | CNC(=O)c1ccc(NCC#Cc2nc3c(N[C@@H]4CCN(C)C[C@@H]4F)cccn3c2C(F)(F)F)c(OC)c1 [Example 97, 4-{[3-(8-{[(3S,4R)-3-fluoro-1-methylpiperidin-4-yl]amino}-3-(trifluoromethyl)imidazo [1,2-a]pyridin-2-yl)prop-2-yn-1-yl]amino}-3-methoxy-N-methylbenzamide] | < 5.52
6 | > 8.00 | 5.10 to 5.30 | 80 to 90% | < 0.75 µM | > 6.12 | ≥ 10 °C | ≥ 10 °C | CNC(=O)c1ccc(NCC#Cc2nc3c(N[C@@H]4CCNC[C@@H]4F)cccn3c2SC(F)(F)F)c(OC)c1 [Example 100, 4-{[3-(8-{[(3S,4R)-3-fluoropiperidin-4-yl]amino}-3-[(trifluoromethyl)sulfanyl]imidazo[1,2-a]pyridin-2-yl)prop-2-yn-1-yl]amino}-3-methoxy-N-methylbenzamide] | > 6.12
7 | > 8.00 | ≤ 5.00 | 80 to 90% | < 0.75 µM | > 6.12 | ≥ 10 °C | 5 to 10 °C | CNC(=O)c1ccc(NCC#Cc2nc3c(N[C@@H]4CCOC[C@@H]4F)cccn3c2SC(F)(F)F)c(OC)c1 [Example 101, 4-{[3-(8-{[(3R,4R)-3-fluorooxan-4-yl]amino}-3-[(trifluoromethyl)sulfanyl]imidazo[1,2-a]pyridin-2-yl)prop-2-yn-1-yl]amino}-3-methoxy-N-methylbenzamide] | > 6.12
8 | > 8.00 | ≤ 5.00 | 70 to 80% | < 0.75 µM | > 6.12 | ≥ 10 °C | ≥ 10 °C | CNC(=O)c1ccc(NCC#Cc2nc3c(N[C@@H]4CNC[C@@H]4F)cccn3c2SC(F)(F)F)c(OC)c1 [Example 102, 4-{[3-(8-{[(3R,4S)-4-fluoropyrrolidin-3-yl]amino}-3-[(trifluoromethyl)sulfanyl]imidazo[1,2-a]pyridin-2-yl)prop-2-yn-1-yl]amino}-3-methoxy-N-methylbenzamide] | > 6.12
9 | > 8.00 | ≤ 5.00 | 80 to 90% | < 0.75 µM | > 6.12 | ≥ 10 °C | ≥ 10 °C | CNC(=O)c1ccc(NCC#Cc2nc3c(N[C@@H]4CN(C)C[C@@H]4F)cccn3c2SC(F)(F)F)c(OC)c1 [Example 103, 4-{[3-(8-{[(3R,4S)-4-fluoro-1-methylpyrrolidin-3-yl]amino}-3-[(trifluoromethyl)sulfanyl]imidazo[1,2-a]pyridin-2-yl)prop-2-yn-1-yl]amino}-3-methoxy-N-methylbenzamide] | > 6.12
10 | > 8.00 | 5.00 to 5.10 | 80 to 90% | < 0.75 µM | > 6.12 | ≥ 10 °C | ≥ 10 °C | CNC(=O)c1ccc(NCC#Cc2nc3c(N[C@@H]4CCN(C)C[C@@H]4F)cccn3c2SC(F)(F)F)c(OCCOC)c1 [Example 104, 4-{[3-(8-{[(3S,4R)-3-fluoro-1-methylpiperidin-4-yl]amino}-3-[(trifluoromethyl)sulfanyl]imidazo[1,2-a]pyridin-2-yl)prop-2-yn-1-yl]amino}-3-(2-methoxyethoxy)-N-methylbenzamide] | > 6.12
11 | > 8.00 | 5.00 to 5.10 | 80 to 90% | < 0.75 µM | > 6.12 | ≥ 10 °C | ≥ 10 °C | CNC(=O)c1ccc(NCC#Cc2nc3c(N[C@@H]4CCN(C)C[C@@H]4F)cccn3c2SC(F)(F)F)c(OC(F)F)c1 [Example 105, 3-(difluoromethoxy)-4-{[3-(8-{[(3S,4R)-3-fluoro-1-methylpiperidin-4-yl]amino}-3-[(trifluoromethyl)sulfanyl]imidazo[1,2-a]pyridin-2-yl)prop-2-yn-1-yl]amino}-N-methylbenzamide] | > 6.12
12 | > 8.00 | ≤ 5.00 | 70 to 80% | < 0.75 µM | > 6.12 | ≥ 10 °C | 5 to 10 °C | CNC(=O)c1ccc(NCC#Cc2nc3c(N[C@@H]4CCN(C)C[C@@H]4F)cccn3c2SC(F)F)c(OC)c1 [Example 106, 4-[(3-{3-[(difluoromethyl)sulfanyl]-8-{[(3S,4R)-3-fluoro-1-methylpiperidin-4-yl]amino}imidazo[1,2-a]pyridin-2-yl}prop-2-yn-1-yl)amino]-3-methoxy-N-methylbenzamide] | > 6.12
13 | > 8.00 | > 5.30 | 80 to 90% | < 0.75 µM | > 6.12 | ≥ 10 °C | ≥ 10 °C | CNC(=O)c1ccc(OC)c(NCC#Cc2nc3c(N[C@@H]4CCN(C)C[C@@H]4F)cccn3c2SC(F)(F)F)c1 [Example 107, 3-{[3-(8-{[(3S,4R)-3-fluoro-1-methylpiperidin-4-yl]amino}-3-[(trifluoromethyl)sulfanyl]imidazo[1,2-a]pyridin-2-yl)prop-2-yn-1-yl]amino}-4-methoxy-N-methylbenzamide] | > 6.12
14 | > 8.00 | 5.00 to 5.10 | 80 to 90% | < 0.75 µM | > 6.12 | ≥ 10 °C | ≥ 10 °C | CCNC(=O)c1ccc(OC)c(NCC#Cc2nc3c(N[C@@H]4CCN(C)C[C@@H]4F)cccn3c2SC(F)(F)F)c1 [Example 108, N-ethyl-3-{[3-(8-{[(3S,4R)-3-fluoro-1-methylpiperidin-4-yl]amino}-3-[(trifluoromethyl)sulfanyl]imidazo[1,2-a]pyridin-2-yl)prop-2-yn-1-yl]amino}-4-methoxybenzamide] | > 6.12

Reference: US20260374766A1, “METHODS FOR TREATING CANCER” (Antares Therapeutics, Inc., priority 2022, published 2026)
